For data set [1], the target named is T1, pancreatic cholesterol esterase (CEase) (Sus scrofa, UniProt A0A286ZKB1).
T1 construct: gene CEL
T1 sequence (A0A286ZKB1 96-682): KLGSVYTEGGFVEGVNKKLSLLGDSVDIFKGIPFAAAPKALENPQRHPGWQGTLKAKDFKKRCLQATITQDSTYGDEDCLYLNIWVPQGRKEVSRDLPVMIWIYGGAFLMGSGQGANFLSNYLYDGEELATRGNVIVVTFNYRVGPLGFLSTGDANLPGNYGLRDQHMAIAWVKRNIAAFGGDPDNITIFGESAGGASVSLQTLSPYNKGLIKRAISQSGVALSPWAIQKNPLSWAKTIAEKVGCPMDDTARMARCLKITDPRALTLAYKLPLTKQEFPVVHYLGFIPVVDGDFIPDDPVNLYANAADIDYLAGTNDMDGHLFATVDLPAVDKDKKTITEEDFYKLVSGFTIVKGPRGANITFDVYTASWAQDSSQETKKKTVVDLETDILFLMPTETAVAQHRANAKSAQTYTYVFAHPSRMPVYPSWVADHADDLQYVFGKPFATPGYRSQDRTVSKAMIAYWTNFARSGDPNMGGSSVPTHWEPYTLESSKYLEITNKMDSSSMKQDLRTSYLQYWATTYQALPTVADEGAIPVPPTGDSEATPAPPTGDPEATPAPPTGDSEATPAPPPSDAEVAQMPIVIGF
The experiment in a line: time-dependent (pseudo substrate) inhibition kinetics, PNPB hydrolysis at […] nm. Type of data set: biochemical.

In data set [2] the target is T1, pancreatic cholesterol esterase (CEase). The data set is described as follows: protection of the enzyme against carbamate inactivation by […] TFA. Type of data set: biochemical.
Substrate in the data set “purified protein”: CCCC(=O)Oc1ccc([N+](=O)[O-])cc1
The data set is described as follows: purified protein. Format: biochemical, Sus scrofa.

Where a name gives a salt, the structure may show the parent alone.

For the molecule `C[C@@H](NC(=O)Oc1ccc2ccccc2c1-c1c(O)ccc2ccccc12)c1ccccc1` [(1R, αR)-1, 2'-N-(R)-α-methylbenzylcarbamyl-(R)-1, 1'-bi-2-naphthol], the KI (inactivation) in data set [1] was found to be 200 ± 10 nM.

Consider `C[C@H](NC(=O)Oc1ccc2ccccc2c1-c1c(O)ccc2ccccc12)c1ccccc1` [(1R, αS)-1, 2'-N-(S)-α-methylbenzylcarbamyl-(R)-1, 1'-bi-2-naphthol], for which, in data set [1], the KI (inactivation) was found to be 500 ± 30 nM.

In turn, `C[C@H](NC(=O)Oc1ccc2ccccc2c1-c1c(O)ccc2ccccc12)c1ccccc1` [(1S, αS)-1, 2'-N-(S)-α-methylbenzylcarbamyl-(S)-1, 1'-bi-2-naphthol] displayed a KI (inactivation) in data set [1] of 6000 ± 400 nM.

For `C[C@@H](NC(=O)Oc1ccc2ccccc2c1-c1c(O)ccc2ccccc12)c1ccccc1` [(1S, αR)-1, 2'-N-(R)-α-methylbenzylcarbamyl-(S)-1, 1'-bi-2-naphthol], the KI (inactivation) in data set [1] was 2000 ± 100 nM.

As for `O=C(c1ccccc1)C(F)(F)F` [TFA, trifluoroacetophenone], the “protection of the enzyme against carbamate inactivation by 2 μM TFA” value in data set [2] is recorded as “the enzyme is protected from inhibition by carbamate by binding of TFA”.

B1: pancreatic cholesterol esterase (CEase) (Sus scrofa) (protein)
chain: KLGSVYTEGGFVEGVNKKLSLLGDSVDIFKGIPFAAAPKALENPQRHPGWQGTLKAKDFKKRCLQATITQDSTYGDEDCLYLNIWVPQGRKEVSRDLPVMIWIYGGAFLMGSGQGANFLSNYLYDGEELATRGNVIVVTFNYRVGPLGFLSTGDANLPGNYGLRDQHMAIAWVKRNIAAFGGDPDNITIFGESAGGASVSLQTLSPYNKGLIKRAISQSGVALSPWAIQKNPLSWAKTIAEKVGCPMDDTARMARCLKITDPRALTLAYKLPLTKQEFPVVHYLGFIPVVDGDFIPDDPVNLYANAADIDYLAGTNDMDGHLFATVDLPAVDKDKKTITEEDFYKLVSGFTIVKGPRGANITFDVYTASWAQDSSQETKKKTVVDLETDILFLMPTETAVAQHRANAKSAQTYTYVFAHPSRMPVYPSWVADHADDLQYVFGKPFATPGYRSQDRTVSKAMIAYWTNFARSGDPNMGGSSVPTHWEPYTLESSKYLEITNKMDSSSMKQDLRTSYLQYWATTYQALPTVADEGAIPVPPTGDSEATPAPPTGDPEATPAPPTGDSEATPAPPPSDAEVAQMPIVIGF
Broadly, the Km is the concentration of substrate that gives half-maximal velocity. B1: in “purified protein”, the Km amounted to 140 ± 10 µM.

Source of the values: article PMC1262691, “Probing stereoselective inhibition of the acyl binding site of cholesterol esterase with four diastereomers of 2'-N-α-methylbenzylcarbamyl-1, 1'-bi-2-naphthol” (BMC Biochemistry, 2005).
